Data as given in US6911470B1, “Polyoxometalate compounds as antiviral agents” (priority 1988, dated 2005).
Where two headings read alike, the source gives them in different places.

Legend:
[1] = test system: Friend, Spleen (EY-10); experiment: UV/XC assay for murine retroviruses in SC-1 cells; assay type: cell-based, murine retrovirus; conditions: Table 2, read-out: EC-50 Friend, Spleen (EY-10)
Method: UV/XC Assay for Murine Retroviruses Cells. Mouse embryo fibroblasts (SC-1) and XC cells were obtained from the American Type Culture Collection, Rockville, Md. The XC cell line was derived from a transplantable tumor induced in newborn White-Weston rats by the intramuscular injection of the Prague strain of Rous sarcoma virus. […] The cells were maintained in Eagle's minimum essential medium with Hanks balanced salt solution, supplemented with penicillin (100 U/ml), streptomycin (100 μg/ml), sodium bicarbonate (24 mM), Hepes (25 mM), and either 2 (maintenance) or 10 (growth) percent inactivated newborn or fetal calf serum.
Virus quantitation by UV-XC assay. The XC test (Rowe et al, Virology 42, 1136-1139, 1970) is a plaque-type of assay which tests for the presence and titer of B- and N-tropic murine leukemia viruses. Because these viruses produce no overt signs of infection of SC-1 mouse cells, it is necessary to overlay the virus producing culture with an indicator cell line, XC. The number of syncytia that are produced is a direct measure of the virus titer in FFU.
Six-well plates were seeded with 1×10^5 SC-1 mouse cells on the first day. On the following day the medium was removed and the inoculum (0.2 ml) was added in medium containing polybrene (4 μg/ml). For determining the antiviral activity of the compounds in culture, the virus dilution selected produced in untreated cultures about 80 foci per well. After 1 hour, the virus was removed and various concentrations of the drug were added. The plates were replenished with medium on the third and fifth days. The medium was removed on the eighth day and the cells exposed to UV irradiation (60 erg/mm^2 per sec) for 30 seconds. Medium containing 10^6 XC cells was then added to each plate. On the eleventh day, the plates were fixed with 10% buffered Formalin and stained with crystal violet. Comparison of the number of foci to those found in virus-infected cells receiving no drug allowed determination of whether a drug at a particular concentration was effective. Control cells without virus but receiving the drug provided an estimate of the drug's toxic effects as quantitated by using trypan blue staining.

[2] = test system: SIV; experiment: Activity against SIV; assay type: cell-based, simian immunodeficiency virus; conditions: Table 2
[3] = test system: Friend retrovirus, strain FV-PLS; experiment: Splenomegaly model in BALB/c mice infected with Friend virus; conditions: for % Effectiveness / Mean Spleen wt. (mg) ± SD: sacrifice day 16
Method: Tests were conducted in whole infected mice using one of the compounds to the present invention. The methodology of this test is the same as was used in Ruprecht et al, Nature 323, 467-469, except that Friend virus was used instead of Rauscher virus.
Comparison of Toxicity of Polyoxometalate Compounds Mice. Female BALB/c mice (3 to 4 weeks old), obtained from Charles River Laboratories (Raleigh, N.C.), were acclimatized in the animal facility for two weeks. They-were then inoculated (200 μl) into the peritoneal cavity with Friend retrovirus, strain FV-PLS. A virus inoculum [about 100 focus forming units (FFU)/mouse] was selected which caused a splenomegaly rate of 100% on day 16 after virus inoculation in untreated animals. The virus titer of the inoculum was determined by a UV/XC assay.
In vivo antiviral experiments. Mice were inoculated intraperitoneally with virus at noon and then randomized into ten animals per treatment group. Five hours after virus inoculation, the mice were treated intraperitoneally with the compounds. Treatment was continued daily for 6 or 10 days. On day 16 after virus inoculation, the animals were sacrificed by carbon dioxide inhalation and their spleens removed under aseptic conditions and weighed.

[4] = background statement; AZT in a clinical setting; cited from earlier work
[5] = Comparison of toxicity of polyoxometalate compounds in mice (mortality, haematology); assay type: in vivo; design: MCV (mean corpuscular volume): unit not given here; conditions: BID × 6, 60 mkd i.p.
Text: Comparison of Toxicity of Polyoxometalate Compounds Mice.
In vivo antiviral experiments. […] Treatment was continued daily for 6 or 10 days.

Compound: Cc1cn([C@H]2C[C@H](N=[N+]=[N-])[C@@H](CO)O2)c(=O)[nH]c1=O [Formula 22, 3′-azido-3′-deoxythymidine, reference compound]
- EC50 ([1]; unidentified retrovirus, SC-1): 10 nM
- EC50 [2]: 2.88 nM
- % Mortality ([3]; 30 mkd IP QD × 10): 0%
- % Effectiveness ([3]; 30 mkd IP QD × 10): 38.4%
- Mean Spleen wt. (mg) ± SD ([3]; 30 mkd IP QD × 10): 1,249 ± 1,152 mg
- % Mortality ([3]; 60 mkd IP QD × 10): 0%
- % Effectiveness ([3]; 60 mkd IP QD × 10): 51.3%
- Mean Spleen wt. (mg) ± SD ([3]; 60 mkd IP QD × 10): 988 ± 836 mg
- adverse effect [4]: reversible bone marrow toxicity

Compound: (ArgH^+)m(H^+)4-mST, where m=1-4 [(ARGH^+)nH^+(4−n)ST]
- EC50 [1]: 990 nM
- Hct (hematocrit) ([5]; bled on day 17): 18.16 ± 6.02%
- Hgb (hemaglobin) ([5]; bled on day 17): 7.08 ± 2.51 g/dL
- MCH ([5]; bled on day 17): 17.8 ± 1.6 pg
- MCHC (mean corpuscular hemoglobin concentration) ([5]; bled on day 17): 38.62 ± 3.49 g/dL
- MCV (mean corpuscular volume) ([5]; bled on day 17): 46.08 ± 0.45
- PLT (platelates) (×1000) ([5]; bled on day 17): 325 ×1000
- RBC (×1000000) ([5]; bled on day 17): 3.95 ± 1.31 ×1000000
- RDW (width of red cells) ([5]; bled on day 17): 36.68 ± 1.31%
- WBC (×1000) ([5]; bled on day 17): 6.28 ± 2.19 ×1000
- Mortality ([5]; dead/total): 0/5

Compound: (NH4)4W10O32 [Formula 18]
- EC50 [1]: 580 nM

Compound: H4SiW12O40 [Formula 3]
- EC50 [1]: 170 nM

Compound: H5BW12O40 [Formula 4]
- EC50 [1]: 180 nM
